Entries after “also recorded” stand apart in the source; their conditions may differ. Where two headings read alike, the source gives them in different places.
What was measured:
[1] = test system: SW620 cell line (gastric); test: MTT cytotoxicity assay, SW620; format: cell-based; settings: Homo sapiens, read-out: Cytotoxicity SW620 (72 hours)
Method: (§1) Tumor cell lines were maintained in RPMI1640 medium supplemented with 10% heat-inactivated fetal bovine serum, 2 mM L-glutamine and 1 mM sodium pyruvate. 1800 cells per well were seeded in a volume of 180 μl in a 96-well flat bottom polystyrene plate. The cells were allowed to adhere overnight at 37° C. in a CO2 incubator. Ligands were initially formulated in DMSO, and stocks stored at −80° C. They were then further formulated at lox concentration in RPMI1640 medium. 20 ul of diluted samples were added into each treatment well. On each plate, blank wells with no cells, and untreated wells containing cells, were included. Plates were then cultured at 37° C. in a CO2 incubator for 72 hrs. Cytotoxicity was evaluated using a tetrazolium salt-based assay, the MTT assay. After 72 hours, the supernatant was removed from each well and 200 μl of a sterile filtered 500 μg/ml MTT solution in water added to each well. The plates were then incubated at 37° C. in a CO2 incubator for 4 hrs. The supernatant was then removed and the formazan crystals formed solubilized by adding 150 μl of DMSO to each well. The plate was then read on a plate reader at 540 nm, and percentage cell survival calculated as follows: ((mean absorbance treated wells at concentration x−mean absorbance blank wells)[…](mean absorbance untreated wells at concentration x−mean absorbance blank wells))×100. Data were plotted as concentration in nM vs. % cell survival in Microsoft Excel, and IC50 values (concentration where cell survival is reduced by a half) were determined from the graph.

[2] = test system: FaDu (head and neck cancer) cell line; test: MTT cytotoxicity assay, FaDu; format: cell-based; settings: Homo sapiens, 72 h
Method: as §1

[3] = test system: LIM1215 cell line (gastric); test: MTT cytotoxicity assay, LIM1215; format: cell-based; settings: read-out: Cytotoxicity LIM1215 (72 hours)
Method: as §1

SW48 cell line (gastric) = test: MTT cytotoxicity assay, SW48; format: cell-based; settings: Homo sapiens, read-out: Cytotoxicity SW48 (72 hrs)
Method: as §1

PC3 (prostate) cell line = test: MTT cytotoxicity assay, PC3; format: cell-based; settings: 72 h, read-out: Cytotoxicity PC3 (nM, 72 hour)
Method: as §1

[4] = test system: three fluorescently labelled DNA sequences shown in FIG. 17; test: FRET DNA melting, the three DNA sequences shown in FIG. 17 together; format: binding; settings: different concentrations, all three sequences, vs control DNA
Excerpt: Further FRET DNA melting studies were undertaken on a number of molecules using three fluorescently labelled sequences. The sequences (FIG. 17) were designed to provide additional evidence that the series can form inter- and intrastrand cross-links. Inosines were inserted in place of traditional DNA bases in some cases to limit the number of binding sites available for the compounds to interact with. The short duplexes used in this FRET study are relatively unstable in the duplex form with a melting temperature below 30° C. so that, in the absence of ligand, a large part of the melting occurs below the starting temperature of the experiment. […] Increasing concentrations of 13 cause a greater amount of the melting transition to appear at the higher temperature (i.e. a greater number of the DNA molecules are cross-linked). A greater effect for 5′-AIIAGAITTTI′-3′ can be observed at lower concentrations of 13.
Oligonucleotides were obtained from ATDbio (Southampton, UK) in lyophilised form. They were labelled with a fluorophore molecule (F=fluorescein) at the 5′-end and a quencher molecule (Q=dabcyl) at the 3′-end of the complementary strand. Each oligonucleotide was dissolved in distilled H2O to form stock solutions of 100 PM. Working solutions of 5 μM were prepared by diluting the stock solution with distilled H2O.
The following buffers were used: 250 mM phosphate buffer pH 7.4 (consisting of sodium dihydrogen phosphate and sodium phosphate diluted in distilled H2O) and 5 M sodium chloride buffer. A11 buffers and distilled H2O were filtered through a […] filter prior to use.
For the FRET experiments a stock solutions were prepared by dissolving compound (such as compound 13) in DMSO to give a concentration of 10 mM. From this stock solution, working solutions of the desired concentration were prepared by diluting the stock solution with distilled H2O.
The reaction mixture was comprised of 4 μL of 250 mM phosphate buffer (final concentration of 50 mM), 4 μL flourophor and 4 μL quencher molecule of the appropriate oligonucleotide for a final concentration of 0.2 PM, 4 μL 5 M sodium chloride (final concentration of 1 M NaCl), and 4 μL of distilled H2O. This mixture was heated in an Eppendorf tube at 90° C. for 1 min and slowly cooled down to room temperature. This process was carried out to anneal the single strands to double-stranded DNA. Following this, 4 μL of the ligand was added in the desired concentration and the mixture incubated overnight either at room temperature or 4° C. A control sample of DNA only was prepared by mixing 4 μL 250 mM phosphate buffer (final concentration of 50 mM) with 4 μL fluorophore-labelled and 4 μL quencher-labelled oligonucleotides (of the appropriate sequence) to give a final concentration of 0.2 PM, 4 μL 5 M sodium chloride (final concentration of 1 M NaCl) and 4 μL distilled H2O. This mixture was analysed without prior annealing.
Fluorescence melting profiles were measured using a Roche LightCycler using a total reaction volume of 20 μL. Initially, the samples were denatured by heating to 95° C. at a rate of 1° C. min^−1. The samples were then maintained at 95° C. for 5 min before annealing by cooling to 25° C. at 1° C. min^−1. The samples were then held at 25° C. for a further 5 min and finally melted by heating to 95° C. at 1° C. min^−1. Annealing steps and melting steps were all recorded and changes in fluorescence were measured at 520 nm.
Tm values were obtained from the first derivates of the melting profiles using the Roche LightCycler software.

[5] = test system: linear double-stranded HexARev DNA fragment; test: DNA cleavage assay, HexARev fragment; format: biochemical; settings: ligand concentration 10 μM and 100 nM (FIG. 16)
Method: The ability of a further series of compounds 13, 42, 59, 99 and the PBD dimer Talirine to cross-link DNA was determined using an assay involving a linear double-stranded HexARev fragment (FIG. 15).
The ability of 13 and of a series of compounds to cleave double-stranded DNA was investigated using a modification of the previously established DNA footprinting assay (34). Following an overnight incubation of the ligand-DNA complexes, the mixture was mixed with strand separation buffer containing 10 mM EDTA, 10 mM NaOH, 0.1% bromophenol blue, 80% formamide and incubated at 100° C. for 3 min. The mixture was then immediately cooled on ice and run on an 8% denaturing gel. […] Using the GA marker, these additional bands were identified as cleavage products produced by 13 at certain A sites of the DNA fragment.
The preparation of the TyrT DNA fragment (FIG. 8) and HexARev DNA fragment (FIG. 15) have been previously described (34). Briefly, the sequence which had been cloned into the BamHI site of pUC18 was obtained by cutting with HindIII and EcoRI. Radiolabelled DNA fragments were prepared by filling in the 3′-end of the HindIII site with [α-^32P]dATP using Klenow DNA polymerase (exo-).
The radiolabelled DNA fragment was separated from the remainder of the plasmid DNA on a 6% non-denaturing polyacrylamide gel. The gel (20 cm long, 0.3 mm thick) was run at 400 V in 1×TBE running buffer for about 1-2 h, until the bromophenol blue had run most of the way down the gel. The glass plates were separated and the position of the labelled DNA fragment was established by short (1 min) exposure to an X-ray film. The relevant band was then cut from the gel and the radiolabelled DNA eluted by adding 300 μL 10 mM Tris-HCl, pH 7.5 containing 0.1 mM EDTA and gently agitating overnight at room temperature. The eluted DNA was finally precipitated with ethanol and re-suspended in a suitable volume of 10 mM Tris-HCl, pH 7.5 containing 0.1 mM EDTA buffer so as to give at least 10 counts per second/μL on a hand-held Geiger counter. With fresh plasmid and α-^32P-dATP this process typically generated about 150 μL of radiolabelled fragment DNA. The absolute concentration of the DNA is not important, and it is typically lower than 10 nM.
Compounds such as 13 were synthesised as described above and the PBD dimer Talirine was obtained from Aurum Pharmatech LLC. Stock solution was prepared by dissolving the ligands in DMSO to give a concentration of 10 mM. From this stock solution, working solutions of the desired concentration were prepared by diluting with 10 mM Tris-HCl, pH 7.5 containing 10 mM NaCl.
Radiolabelled DNA (1.5 μL) was mixed with 1.5 μL ligand solution of various concentrations (10 μM-10 nM) and incubated overnight at 37° C.
Labelled DNA (1.5 μL) was mixed with 20 μL sterile water and 5 μL of denaturing loading solution (80% formamide containing 10 mM EDTA, 10 mM NaOH, 0.01% bromophenol blue). The sample was then incubated at 100° C. for 20 min with the micro-centrifuge tube cap open to allow evaporation.
Loading solution (4.5 μL) was added to samples from Section 2.1. The digestion products were boiled for 3 min at 100° C. and quickly cooled on ice prior to electrophoresis. Separation was performed on an 8% denaturing polyacrylamide gel (40 cm long, 0.3 mm thick) at 1500V for about 2 h until the dye reached the bottom of the gel. […]

SW620 cell line = test: MTT cytotoxicity assay, SW620; format: cell-based; settings: MTT assay, 72 hour incubation
Method: as §1

SW48 cell line = test: MTT cytotoxicity assay, SW48; format: cell-based; settings: MTT assay, 72 hour incubation
Method: as §1

[6] = read-out: Cytotoxicity FaDu (nM, 72 hour)

SMILES	IC50 [2, 6] [nM]	IC50 ([3]; LIM1215, 72 h) [nM]	IC50 (PC3 (prostate) cell line) [nM]	cleavage of HexARev DNA fragment [5]	other results
COc1cc2c(cc1OCCCCCC(=O)N1C[C@@H](CCl)c3c1cc(OC(=O)N1CCN(C)CC1)c1ccccc31)N=C[C@@H]1CCCCN1C2=O [Compound 57, (S)-1-(Chloromethyl)-3-(6-(((S)-2-methoxy-12-oxo-6a,7,8,9,10,12-hexahydrobenzo[e]pyrido[1,2-a][1,4]diazepin-3-yl)oxy)hexanoyl)-2,3-dihydro-1H-benzo[e]indol-5-yl 4-methylpiperazine-1-carboxylate]	> 10	0.41	3	–	IC50 ([1]; SW-620, 72 h): 1.1 nM; IC50 (SW48 cell line (gastric); SW48, 72 h): 0.042 nM
COc1cc2c(cc1OCc1cccc(CC(=O)N3C[C@@H](CCl)c4c3cc(OC(=O)N3CCN(C)CC3)c3ccccc43)c1)N=C[C@@H]1CCCCN1C2=O [Compound 59, (S)-1-(Chloromethyl)-3-(2-(3-((((S)-2-methoxy-12-oxo-6a,7,8,9,10,12-hexahydrobenzo[e]pyrido[1,2-a][1,4]diazepin-3-yl)oxy)-methyl)phenyl)acetyl)-2,3-dihydro-1H-benzo[e]indol-5-yl 4-methyl-piperazine-1-carboxylate]	–	–	900	limited cleavage	IC50 ([2]; read-out: IC50 value in FaDu (prodrug form)): 4500 nM; effect on melting temperature / DNA stabilisation [4]: does not impact on the stabilisation temperature of the parent DNA; also recorded: does not increase in proportion to the concentration
COc1cc2c(cc1OCCCC(=O)N1C[C@@H](CCl)c3c1cc(OC(=O)N1CCN(C)CC1)c1ccccc31)N=C[C@@H]1Cc3ccccc3CN1C2=O [Compound 61, (S)-1-(Chloromethyl)-3-(4-(((S)-2-methoxy-14-oxo-6a,7,12,14-tetrahydrobenzo[5,6][1,4]diazepino[1,2-b]isoquinolin-3-yl)oxy)butanoyl)-2,3-dihydro-1H-benzo[e]indol-5-yl 4-methylpiperazine-1-carboxylate]	> 10	–	> 10	–	–
O=C(O)c1cc(OCc2ccccc2)c2ccccc2c1 [Compound 77, 4-(Benzyloxy)-2-naphthoic acid]	–	–	–	distinct cleavage patterns	–
COc1cc2c(cc1OCCCCCC(=O)N1C[C@@H](CCl)c3c1cc(O)c1ccccc31)N=C[C@@H]1CCCCN1C2=O [Compound 99, (S)-3-((6-((S)-1-(Chloromethyl)-5-hydroxy-1,2-dihydro-3H-benzo[e]indol-3-Y1)-6-oxohexyl)oxyl)-2-methoxy-7,8,9,10-tetrahydrobenzo-[e]pyrido[1,2-a][1,4]diazepin-12(6aH)-one]	–	–	–	cleave DNA	IC50 ([1]; SW-620, MTT assay, 72 hour incubation): 0.045 nM; IC50 ([3]; LIM1215, MTT assay, 72 hour incubation): 0.039 nM; IC50 (SW48 cell line (gastric); SW48, MTT assay, 72 hour incubation): 0.035 nM
COc1cc2c(cc1OCc1cccc(CC(=O)N3C[C@@H](CCl)c4c3cc(OC(=O)N3CCN(C)CC3)c3ccccc43)c1)NC(=O)[C@@H]1CCCCN1C2=O [Compound 140]	–	18.1	–	–	Cytotoxicity SW620 (72 hours) (SW620 cell line): Not active; Cytotoxicity SW48 (72 hrs) (SW48 cell line): Not active

Source: patent publication US20240002379A1, “ASYMMETRIC CONJUGATE COMPOUNDS” (Pheon Therapeutics Ltd., priority 2016, published 2024)
